Series [1] concerns co-cultures of E0771 cells and IL-2-activated CD8+ T cells. Nature of the series: Drug screening, image-based phenotypic screen with H5. Format: cell-based, mouse. The conditions noted are these: drug at working concentration plus IL-2 100 U mL^−1, 3 h. The procedure:
Drug screening. E0771 (750 cells/well) and freshly isolated murine CD8+ T cells (6,000 cells/well) were plated in 384-well plates as described above. […] H5 (20 μM) and Hoechst 33342 (1 μM) was added for 1 h at 37° C., washed with PBS and imaged under ImageXpress™ XLS (Molecular Devices) using KRB (10% FBS) buffer as media. Fluorescent images (4 sites/well) were acquired under a 40× objective using 405 nm (Hoechst) and 488 nm (H5) excitation wavelengths and data was analysed with MetaXpress software using the Custom Module Editor. Briefly, nuclei were used as seeds to create a pseudo-cell area and granzyme B positive puncta were detected using a top-hat filter (pixel size: 10, circle shape) followed by an average filter (3×3 pixel).

For series [2], the system named is recombinant hGzmB (20 nM). Nature of the series: buffer-1 (50 mM Tris, 100 mM NaCl, pH 7.4). The conditions noted are these: human, 37° C., up to 2 h.
Series [3] relates to human recombinant granzyme B (15 nM). Nature of the series: urine from 3 healthy donors with spiked granzyme B (15 nM). The settings on record: 37° C., up to 3 hours.
Series [4] can be described thus: urine from 3 healthy donors, without granzyme B. The settings on record: human, 37° C., up to 3 hours.
The target of another series is hGzmB (Homo sapiens, UniProt P10144). Briefly: HPLC conversion/cleavage of probes by hGzmB. In kind it is biochemical. The text has this:
FIG. 5. HPLC traces of the probe H5 before and after reaction with hGzmB. HPLC chromatogram and mass spectrometry analysis of the probe H5 before and after reaction with increasing concentrations of hGzmB. Mcalc. (intact probe): 1246.6 [M+Na^+]; Mcalc. (cleaved probe): 747.2 [M+H^+].

Experimental findings from patent US20240376517A1 (THE UNIVERSITY COURT OF THE UNIVERSITY OF EDINBURCH, priority 2021, published 2024) are described below.

*1 amine or outer side, *2 acyl side, *3 side chain or, on linkers, in order; H or OH if unused. Where a SMILES comes first, the peptide text is derived from it. Where no end group is shown, it is not given here. [ ]: non-standard residue; d: D form. The star is where a group is joined. ξ: configuration not given here. BODIPY(FL) = CC1=CC(C)=[N+]2C1=Cc1ccc(CCC(=O)*)n1[B-]2(F)F; X1 = CN(C)c1ccc(/N=N/c2ccc(C(=O)*)cc2)cc1; Ethylenediamine = C(CN[*:2])N[*:1]; Ile(3ξ) = CCC(C)[C@H](N)C(=O)O

hGzmB, sequence (P10144 21-247): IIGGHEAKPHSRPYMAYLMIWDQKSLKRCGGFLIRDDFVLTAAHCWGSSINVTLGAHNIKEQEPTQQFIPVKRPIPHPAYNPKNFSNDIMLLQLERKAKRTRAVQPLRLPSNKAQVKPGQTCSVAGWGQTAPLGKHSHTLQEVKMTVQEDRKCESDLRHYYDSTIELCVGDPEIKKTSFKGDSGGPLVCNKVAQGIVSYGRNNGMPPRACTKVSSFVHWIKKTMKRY

As to `C/C(=C\c1csc(C)n1)[C@@H]1C[C@@H]2O[C@]2(C)CCC[C@H](C)[C@H](O)[C@@H](C)C(=O)C(C)(C)[C@@H](O)CC(=O)O1` [C13, Epothilone B], the “H5 fluorescence signal compared to IL-2 only controls” value in series [1] is “Increased fluorescence signals”.
As to “IEPD-Dabcyl ({BODIPY(FL)}-IEPD-{Ethylenediamine-X1}; SMILES CC[C@H](C)[C@H](NC(=O)CCC1=[N+]2C(=Cc3c(C)cc(C)n3[B-]2(F)F)C=C1)C(=O)N[C@@H](CCC(=O)O)C(=O)N1CCC[C@H]1C(=O)N[C@@H](CC(=O)O)C(=O)NCCNC(=O)c1ccc(/N=N/c2ccc(N(C)C)cc2)cc1)”, the not cleaved in series [2] is <5% cleavage at 20 nM enzyme for 2 h.
For `CC(=O)O[C@@]12CO[C@@H]1C[C@H](O)[C@@]1(C)C(=O)[C@H](O)C3=C(C)[C@@H](OC(=O)[C@H](O)[C@@H](NC(=O)OC(C)(C)C)c4ccccc4)C[C@@](O)([C@@H](OC(=O)c4ccccc4)[C@H]21)C3(C)C` [C11, Docetaxel], the “H5 fluorescence signal compared to IL-2 only controls” value in series [1] was “Increased fluorescence signals”.
“{BODIPY(FL)}-[Ile(3ξ)]EPDAL-{Ethylenediamine-X1} (SMILES CCC(C)[C@H](NC(=O)CCC1=[N+]2C(=Cc3c(C)cc(C)n3[B-]2(F)F)C=C1)C(=O)N[C@@H](CCC(=O)O)C(=O)N1CCC[C@H]1C(=O)N[C@@H](CC(=O)O)C(=O)N[C@@H](C)C(=O)N[C@@H](CC(C)C)C(=O)NCCNC(=O)c1ccc(/N=N/c2ccc(N(C)C)cc2)cc1) [H5]”: the values for the cleaved bond entry in series [2] and in series [3] were “Asp-Ala” and “aspartic acid-Ala”, respectively. Moreover, in series [4], the not cleaved entry is “less than 1% of both probes had been cleaved whilst in the urine sample alone”.
For `CC(=O)N[C@@H](CSC(=O)[C@]1([C@@H](O)C(C)C)NC(=O)[C@H](C)[C@@H]1O)C(=O)O` [C30, Lactacystin], the “H5 fluorescence signal compared to IL-2 only controls” value in series [1] is “Increased fluorescence signals”.
With `CO[C@@]12[C@H](COC(N)=O)C3=C(C(=O)C(C)=C(N)C3=O)N1C[C@@H]1N[C@@H]12` [C18, Mitomycin C], the “H5 fluorescence signal compared to IL-2 only controls” value in series [1] is recorded as “Increased fluorescence signals”.
As to IEPDSG, the cleaved bond result in series [2] was “Asp-Ser”.
For the compound Ile-Glu-Pro-Asp-Ala-Leu [R7], the cleaved bond entry in series [2] and in series [3] was “aspartic acid-Ala” throughout. Besides, in series [4], the not cleaved result is “less than 1% of both probes had been cleaved whilst in the urine sample alone”.
On to IEPDSL, for which the cleaved bond entry in series [2] is “Asp-Ser”.
As for “H5m (IEFDAL; also: FRET labels, positions not given here)”, the “HPLC conversion (20 nM hGzmB, 2 h)” value with hGzmB (20 nM hGzmB, 2 h) was determined as 70%.
With IEPDWR, the cleaved bond result in series [2] is listed as “Asp-Trp”.
On the same count and under the same terms, then IEPDRL, with “Asp-Arg”.
As to `C#CC[C@H](c1nc2cc(Cl)ccc2c(=O)n1Nc1ccccc1)N(CCCN)C(=O)c1cccc(Cl)c1F` [C12, ARQ621], the “H5 fluorescence signal compared to IL-2 only controls” value in series [1] is reported as “Increased fluorescence signals”.
As to `CC[C@H](C)[C@H](NC(=O)CCC1=[N+]2C(=Cc3c(C)cc(C)n3[B-]2(F)F)C=C1)C(=O)N[C@@H](CCC(=O)O)C(=O)N1CCC[C@H]1C(=O)N[C@@H](CC(=O)O)C(=O)NCCNC(=O)c1ccc(/N=N/c2ccc(N(C)C)cc2)cc1` [T1] ({BODIPY(FL)}-IEPD-{Ethylenediamine-X1}), the “cleavage at 20 nM enzyme for 2 h” value at hGzmB (20 nM enzyme, 2 h) is listed as less than 5%. Also, the “cleavage at 100 nM for 24 h” value on hGzmB (100 nM enzyme, 24 h) was 15%.
In the case of IEFDAL, the cleaved bond result in series [2] is reported as “Asp-Ala”.
Take IEPDAG: the cleaved bond result in series [2] is “Asp-Ala”.
Turning to IEPDWL, in series [2], the cleaved bond entry is on record as “Asp-Trp”.
